Where a name gives a salt, the structure may show the parent alone.
Test system: standard pool of bacteria, yeasts, and molds
Test: Microbial challenge test
Assay type: cell-based
Details: for microbial challenge test (by acid): HEURs treated with the named acid
Description: Compositions within and outside the scope of the present invention were tested for microbial growth susceptibility using a series of microbial challenge tests.
Samples were inoculated 2 times at 7-d intervals with 10^6-10^7 colony forming units per milliliter of sample (CFU/mL) of a standard pool of bacteria, yeasts, and molds obtained from American Type Culture Collection (ATCC) that are common contaminants in coatings. Once inoculated, the samples were stored in 25° C. incubators. Test samples were monitored for microbial contamination by agar plating using a standard streak plate method. Samples were plated 1 and 7 day after each microbial challenge onto trypticase soy agar (TSA) and potato dextrose agar (PDA) plates. All agar plates were checked daily up to 7 d after plating to determine the number of microorganisms surviving in the test samples. When not being checked, the agar plates were stored in incubators, 30° C. for TSA plates and 25° C. for PDA plates. The extent of microbial contamination was established by counting the colonies, where the rating score was determined from the number of microbial colonies observed on the agar plates. Reported results come from day 7 readings. Table 1 illustrates the rating system used to estimate the level of microbial contamination on streak plates. Colonies refers to the number of colonies on the plate.

Row | Compound | microbial challenge test (by acid) | microbial challenge test at a pH of 2.8 (pH of 2.8) | microbial challenge test at a pH of 3.3 (pH of 3.3)
1 | O=S(=O)(O)O [Example H2SO4, sulfuric acid] | passed |  | 
2 | Cl [HCl, hydrochloric acid] | passed |  | 
3 | O=P(O)(O)CN(CP(=O)(O)O)CP(=O)(O)O [NTMTPA, nitrilotris(methylene)triphosphonic acid] | passed |  | 
4 | O=P(O)(O)O [phosphoric acid] | passed | not optimal | failed

From patent US11965091B2, “Biocide free associative thickener” (Rohm and Haas Company, priority 2019, dated 2024)
